Results taken from patent publication US7332623B2 (Kaohsiung Medical University, priority 2003, dated 2008).
Entries after “also recorded” stand apart in the source; their conditions may differ. Marks after values point to notes of the source that are not given here.

What was measured:
[1] = system: Hela: human cervix epitheloid carcinoma; test: In vitro anticancer assay (cytotoxicity), solid tumor cells
[2] = system: KB: human oral epidermoid carcinoma; test: as above; conditions: Homo sapiens, read-out: IC50 Values of Cytotoxicities
CNS Cancer cell lines = test: NCI panel, average of cell lines; conditions: Homo sapiens, read-out: cytotoxicity GI50, average value of all the cancer cell lines
Renal Cancer cell lines = test: NCI panel, average of cell lines; conditions: Homo sapiens, read-out: cytotoxicity GI50, average value of all the cancer cell lines
CNS cancer cell SF-268 = test: Preliminary cytotoxicity test; assay type: cell-based, human
[3] = system: Non-Small Cell Lung Cancer cell lines; test: NCI panel, average of cell lines; conditions: Homo sapiens, read-out: cytotoxicity GI50, average value of all the cancer cell lines
[4] = system: Prostate Cancer cell lines; test: NCI panel, average of cell lines; conditions: Homo sapiens, read-out: cytotoxicity GI50, average value of all the cancer cell lines
[5] = system: Ovarian Cancer cell lines; test: NCI panel, average of cell lines; conditions: Homo sapiens, read-out: cytotoxicity GI50, average value of all the cancer cell lines
Breast Cancer cell lines = test: NCI panel, average of cell lines; conditions: Homo sapiens, read-out: cytotoxicity GI50, average value of all the cancer cell lines
Colon Cancer cell lines = test: NCI panel, average of cell lines; conditions: Homo sapiens, read-out: cytotoxicity GI50, average value of all the cancer cell lines
Leukemia cell lines = test: NCI panel, average of cell lines; conditions: Homo sapiens, read-out: cytotoxicity GI50, average value of all the cancer cell lines
[6] = system: Non-small cell Lung cancer cell NCI-H460; test: Preliminary cytotoxicity test; assay type: cell-based, human
Melanoma cell lines = test: NCI panel, average of cell lines; conditions: Homo sapiens, read-out: cytotoxicity GI50, average value of all the cancer cell lines
K-562 cells = test: Cell cycle distribution by flow cytometry; assay type: cell-based, human; conditions: K-562, 72 hrs
Procedure: Samples of 1×10^6 Hep G2 cells were plated on a 6 cm tissue culture dish, and the cells were allowed to recover 24 hrs before any treatment. Thereafter, DMSO or a test compound (1 μM, 10 μM or 50 μM) was added to the cells for 1 hr in complete medium at 37° C., washed twice with PBS, and incubated in fresh media for the incubation time. Cell were harvested with trypsin and washed twice with PBS. Samples were fixed in 70% ethanol and stored at 4° C. for at least 24 hrs and then washed once with McIlvaine's buffer (0.2M Na2HPO4, 0.1M citric acid, pH=7.5) and once again with PBS. Samples were stained with PI (propidium iodide) staining solution (PBS containing 100 μg/ml, RNase A and 10 μg/ml PI [Sigma]), processed on a Coulter Elite flow cytometry, and the data analyzed with the Mutiplus AV program.

Breast cancer cell MCF-7 = test: Preliminary cytotoxicity test; assay type: cell-based, human
[7] = system: NCI (NCI-H661): human lung large cell carcinoma; test: In vitro anticancer assay (cytotoxicity), solid tumor cells
topoisomerase I = target: T1, topoisomerase I (Homo sapiens, UniProt P11387); test: Topoisomerase I assay, cleavage of supercoiled pGEM9zf(−) DNA, gel electrophoresis; assay type: biochemical; conditions: for topo I inhibitor, overall conclusion: from FIGS. 1 and 2
T1 sequence (P11387 1-765): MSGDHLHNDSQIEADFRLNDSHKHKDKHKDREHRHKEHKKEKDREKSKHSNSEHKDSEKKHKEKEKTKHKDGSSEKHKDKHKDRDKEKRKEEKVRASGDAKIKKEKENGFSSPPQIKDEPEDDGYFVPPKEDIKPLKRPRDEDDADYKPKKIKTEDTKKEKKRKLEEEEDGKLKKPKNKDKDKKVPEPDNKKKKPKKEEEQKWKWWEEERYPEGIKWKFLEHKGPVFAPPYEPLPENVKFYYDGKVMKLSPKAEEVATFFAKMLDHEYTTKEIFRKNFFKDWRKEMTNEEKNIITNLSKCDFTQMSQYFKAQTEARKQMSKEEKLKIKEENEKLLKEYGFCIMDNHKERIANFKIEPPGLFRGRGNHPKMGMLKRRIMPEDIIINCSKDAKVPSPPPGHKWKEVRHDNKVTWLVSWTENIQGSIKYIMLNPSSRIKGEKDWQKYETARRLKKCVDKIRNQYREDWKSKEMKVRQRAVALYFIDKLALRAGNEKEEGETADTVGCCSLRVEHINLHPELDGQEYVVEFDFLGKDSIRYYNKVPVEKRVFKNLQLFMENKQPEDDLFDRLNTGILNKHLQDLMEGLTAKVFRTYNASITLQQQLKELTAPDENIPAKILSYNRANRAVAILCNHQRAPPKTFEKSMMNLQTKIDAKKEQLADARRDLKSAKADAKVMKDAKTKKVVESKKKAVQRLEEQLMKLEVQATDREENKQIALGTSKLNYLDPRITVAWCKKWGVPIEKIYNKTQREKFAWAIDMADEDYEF

Hep2,2,15 = conditions: Hep2,2,15, Table 1; cited from earlier work

Compound: CCCCCCC#C/C=C\C#Cc1cccc(C(F)(F)F)c1 [Compound 19, 3-(3-(Z)-Dodecen-1,5-diynyl)trifluoromethylbenzene]
- IC50 Values of Cytotoxicities [1]: — (“—” means IC50 > 20 μg/ml)

Compound: CCCCCCC#C/C=C\C#Cc1ccc([N+](=O)[O-])cc1 [Compound 21, 4-nitro-1-(3-(Z)-dodecen-1,5-diynyl)benzene]
- IC50 [2]: > 20 µg/mL

Compound: N#Cc1ccccc1C#CC=CC#Cc1cnccn1 [Compound 30, 2-(6-(2-pyrazinyl)-3-hexen-1,5-diynyl)benzonitrile]
- GI50 (CNS Cancer cell lines): 32.2 µM
- GI50 (Renal Cancer cell lines): 27 µM
- Growth percentage (CNS cancer cell SF-268): 84%
- GI50 [3]: 11.8 µM
- GI50 [4]: 33.6 µM
- GI50 [5]: 38.1 µM
- GI50 (Breast Cancer cell lines): 33.3 µM
- GI50 (Colon Cancer cell lines): 7.54 µM
- GI50 (Leukemia cell lines): 5.05 µM
- Growth percentage [6]: 8* %
- GI50 (Melanoma cell lines): 18.7 µM
- accumulation of G2/M stage cells (K-562 cells): an accumulation of G2/M stage cells
- Growth percentage (Breast cancer cell MCF-7): 73%

Compound: 2-(6-(2-xylenyl)-3-hexen-1,5-diyne)benzonitrile [Compound 24]
- Growth percentage (CNS cancer cell SF-268): 111%
- Growth percentage [6]: 129%
- Growth percentage (Breast cancer cell MCF-7): 101%

Compound: N#Cc1ccccc1C#CC=CC#Cc1ccccn1 [Compound 27, 2-(6-(2-pyridinyl)-3-hexen-1,5-diynyl)benzonitrile]
- GI50 (CNS Cancer cell lines): 20.9 µM
- GI50 (Renal Cancer cell lines): 21.7 µM
- Growth percentage (CNS cancer cell SF-268): 83%
- GI50 [3]: 19.6 µM
- GI50 [4]: 21.2 µM
- GI50 [5]: 27.3 µM
- GI50 (Breast Cancer cell lines): 14.3 µM
- GI50 (Leukemia cell lines): 12.8 µM
- Growth percentage [6]: 23* %
- GI50 (Melanoma cell lines): 14.2 µM
- accumulation of G2/M stage cells (K-562 cells): an accumulation of G2/M stage cells
- Growth percentage (Breast cancer cell MCF-7): 49%

Compound: COc1ccc(C#CC=CC#Cc2ccccc2C#N)cc1 [Compound 25]
- Growth percentage (CNS cancer cell SF-268): 91%
- Growth percentage [6]: 48%
- Growth percentage (Breast cancer cell MCF-7): 90%

Compound: N#Cc1ccccc1C#Cc1ccccc1C#CCCCOC1CCCCO1 (centres unmarked) [Compound 8]
- IC50 Values of Cytotoxicities [7]: — (“—” means IC50 > 20 μg/ml)
- inhibition of topo I (topoisomerase I; 0.87 μM compound): untwisting DNA was revealed
- inhibition of topo I (topoisomerase I; 8.7 μM compound): no Topo I inhibition; also recorded: untwisting DNA was revealed
- inhibition of topo I (topoisomerase I; 87 μM compound): no Topo I inhibition; also recorded: untwisting DNA was revealed

Compound: CCCCC#C/C=C\C#Cc1ccccc1 [Compound 6, (3Z)-Decen-1,5-diynylbenzene]
- topo I inhibitor, overall conclusion (topoisomerase I): not Topo I inhibitors

Compound: CCCCC#Cc1ccccc1C#Cc1ccccc1C#N [Compound 9, 2-(2-(2-Hexynylphenyl)ethynyl)benzonitrile]
- IC50 Values of Cytotoxicities [7]: — (“—” means IC50 > 20 μg/ml)

Compound: CCCCCCC#C/C=C\C#Cc1ccc(C#C/C=C\C#CCCCCCC)cc1 [Compound 11, 1,4-Bis-(3-(Z)-Dodecen-1,5-diynyl)benzene]
- topo I inhibitor, overall conclusion (topoisomerase I): not topo I inhibitors

Compound: N#Cc1ccccc1C#C/C=C\C#CCOC1CCCCO1 (centres unmarked) [Compound 1, 2-(7-(Tetrahydropyranyloxy)-3(Z)-hepten-1,5-diynyl)-benzonitrile]
- IC50 (Hep2,2,15): > 10 µM
- IC50 Values of Cytotoxicities [7]: —* (“—” means IC50 > 20 μg/ml)

Compound: 2-(6-(2-thioanisyl)-3-hexen-1,5-diynyl)benzonitrile [Compound 31]
- Growth percentage (CNS cancer cell SF-268): 164%
- Growth percentage [6]: 100%
- Growth percentage (Breast cancer cell MCF-7): 62%

Compound: CCCCCCC#C/C=C\C#Cc1ccc(C(F)(F)F)cc1 [Compound 18, 4-(3-(Z)-Dodecen-1,5-diynyl)trifluoromethylbenzene]
- topo I inhibitor, overall conclusion (topoisomerase I): displayed topo I inhibitory activities

Compound: CCCCCCC#C/C=C\C#Cc1ccccc1C(=O)O [Compound 22, 2-(3-(Z)-Dodecen-1,5-diynyl)benzoate]
- IC50 Values of Cytotoxicities [7]: — (“—” means IC50 > 20 μg/ml)
